Earlier results, collected in patent US8926994B2, “Mesoporous silicon particles for the presentation of tumor antigens and adjuvant for anti-cancer immunity” (The Methodist Hospital Research Institute, priority 2011, dated 2015).

Tested on: endothelial cells

For `N.N.[Cl][Pt][Cl]` [cis-platin], the “relative cell cycle composition / mitosis (propidium iodide DNA content)” value (12 and 24 hr, 10:1 microparticles:cell) is given as “inhibited cellular mitosis” and the “apoptotic volume (cell death)” value (flow cytometry) is given as “major accumulation of cell fragments”.
